Data on two molecules can be found in patent US20250186532A1, “SHINE MUSCAT JELLY HAVING HIGH SENSORY APPEAL AND EXCELLENT ANTIOXIDANT AND ANTITHROMBOTIC ACTIVITIES, AND METHOD OF PREPARING SAME” (Andong National University Industry-Academic Cooperation …, priority 2023, published 2025).

Assay [1] addresses T1, thrombin (Homo sapiens, UniProt P00734).
T1 construct: 50 μl of 0.5 U thrombin (Sigma Co., USA); purchased Sigma Co., USA
As to the kind of experiment: Thrombin time (blood coagulation inhibitory activity). The class given is biochemical. The protocol: (§1) An antithrombotic activity was measured for the three types of jellies prepared in Example 3, and the results are shown in Table 5. At this time, the blood coagulation inhibitory activity evaluation method was in accordance with the previously reported method (Sohn et al., 2004. Kor. J. Pharmacogn 35. 52-61; Kwon et al., 2004. J. Life Science, 14. 509-513; Ryu et al. 2010. J. Life Science, 20. 922-928). Experiments were conducted to measure thrombin time, prothrombin time, and activated Partial Thromboplastin Time (aPTT). For plasma, commercially available control plasma (MD Pacific Technology Co., Ltd, Huayuan Industrial Area, China) was used. The thrombin time, prothrombin time, and aPTT measurements were performed as follows.
At a temperature of 37° C., 50 μl of 0.5 U thrombin (Sigma Co., USA), 50 μl of 20 mM CaCl2), and 10 μl of sample extracts of various concentrations were mixed in a tube of Amelung coagulometer KC-1A (Japan), and reacted for 2 minutes. Thereafter, 100 μl of plasma was added thereto. Afterward, the time until the plasma coagulated was measured. Aspirin (Sigma Co., USA) was used as a control. […] The thrombin inhibition effect was expressed as an average value of experiments repeated more than three times. A thrombin inhibitory activity was expressed as the coagulation time upon sample addition divided by the coagulation time upon the solvent control addition.

For assay [2], the system named is prothrombin. Put plainly: Prothrombin time (blood coagulation inhibitory activity). The class given is biochemical. The protocol:
as §1
At a temperature of 37° C., 70 μl of standard plasma (MD Pacific Co., China) and 10 μl of sample solutions of various concentrations were added into the tube of Amelung coagulometer KC-1A (Japan) and heated for 3 minutes. Thereafter, 130 μl of PT reagent was added thereto. Afterward, the time until the plasma coagulated was expressed as an average value of the experiments repeated three times. Aspirin (Sigma Co., USA) was used as a control. […] A prothrombin inhibitory activity was expressed as the coagulation time upon sample addition divided by the coagulation time upon the solvent control addition.

The test system of assay [3] is blood coagulation factor. Put plainly: Activated Partial Thromboplastin Time (aPTT). The class given is biochemical. The protocol:
as §1
Activated Partial Thromboplastin Time (aPTT)
At a temperature of 37° C., 100 μl of plasma and 10 μl of sample extracts of various concentrations were added to the tube of Amelung coagulometer KC-1A (Japan) and heated for 3 minutes. Thereafter, 50 μl of aPTT reagent (Sigma, ALEXIN™) was added thereto. […] Afterward, the time until the plasma coagulated was measured. […] The results of aPTT were expressed as an average value of three repeated experiments. A blood coagulation factor inhibitory activity was expressed as the aPTT upon sample addition divided by the aPTT upon the solvent control addition.

Assay [4] in a line: Nitrite scavenging ability (Griess reagent). The conditions noted are these: 0.2 mg/ml; nitrite solution 1 mM, pH 1.2, 37° C., 1 hour. The procedure:
To measure the nitrite scavenging ability, a sample solution was added to the nitrite solution (1 mM), and 0.1 N HCl was further added thereto to adjust the pH of the mixture to 1.2. Thereafter, the mixture was reacted at a temperature of 37° C. for 1 hour, and then Griess reagent (Sigma Co., USA) was added, and the resulting solution was mixed. After leaving the resulting solution at room temperature for 15 minutes, the amount of remaining nitrite was measured by measuring absorbance at a wavelength of 520 nm. The nitrite scavenging ability (%) was calculated using the following equation.
(The Griess reaction detects nitrite, a stable product of nitric oxide.)

Where [5] appears, read: compared to the untreated group, aspirin at 1.5 mg/ml.

Turning to `CC(=O)Oc1ccccc1C(=O)O` [Aspirin], the “Blood coagulation inhibitory activity, Thrombin time” value in assay [1] (coagulation time upon sample addition / upon DMSO addition, control plasma, 37° C., aspirin 1.5 mg/ml, concentration not given for jellies) is reported as 1.26 ± 0.00. In assay [1] (setting [5]), the “extension of thrombin time” value turned out to be 1.26 times. Moreover, the “Blood coagulation inhibitory activity, Prothrombin time” value in assay [2] (coagulation time upon sample addition / upon DMSO addition, standard plasma, 37° C., aspirin 1.5 mg/ml, concentration not given for jellies) turned out to be 1.30 ± 0.02. In addition, the “extension of prothrombin time” value in assay [2] (setting [5]) worked out at 1.30 times. Moreover, the “Blood coagulation inhibitory activity, aPTT” value in assay [3] (aPTT upon sample addition / upon DMSO addition, plasma, 37° C., aspirin 1.5 mg/ml, concentration not given for jellies) is recorded as 1.33 ± 0.02. The “extension of aPTT” value in assay [3] (setting [5]) is given as 1.33 times.

For `O=C1O[C@H]([C@@H](O)CO)C(O)=C1O` [Vitamin C], the Nitrite scavenging ability in assay [4] is given as 62.5 ± 0.1%.
